{
  "source": "patent US9358272B2",
  "about": "“Multicomponent compositions and their uses” (THE ADMINISTRATORS OF THE TULANE EDUCATIONAL FUND, priority 2011, dated 2016)",
  "key": {"[1]": {"test_system": "ovarian cancer OVCAR8 cells", "experiment": "Cell proliferation assay (MTT), OVCAR8 cells", "assay_type": "cell-based, Human", "settings": "single agents and combinations", "experimental": "(§1) Cell Proliferation Assay (MTT)\n(§2) The cell proliferation assay was performed as described previously in Sun et al., Bioorg Med Chem Lett, 2004, Vol. 14, pp. 2041-2046. Briefly, 50 μl aliquots of medium with different concentrations of compounds were added to 96-well plates. All compound concentrations were tested in triplicate. Another 50 μl of the cell stock (1×10^5 cells/ml of media) was dispensed into each test well and the plates were incubated at 37° C. in a CO2 incubator for 3 days. Following the incubation period, 15 μl of the dye solution was added to each well and the plates were then incubated at 37° C. for 4 hours, followed by the addition of 100 μl per well of the solubilization solution. The plates were incubated at 37° C. until the contents in each well became a uniform-colored solution. The absorbance was measured and recorded at 570 nm by a Victor Plate Reader.\n(§3) The cell proliferation assay (Promega, Madison, Wis.) was performed as described in Sun et al., Bioorg Med Chem Lett, 2004, Vol. 14, pp. 2041-2046. The absorbance was measured and recorded at 570 nm by a Victor Plate Reader (PerkinElmer, Boston, Mass.)."}, "[2]": {"test_system": "pancreatic cancer CFPAC-1 cells", "experiment": "Cell proliferation assay (MTT), CFPAC-1 cells", "assay_type": "cell-based, Human", "settings": "single agents and combinations", "experimental": "as §1, §2, §3"}, "[3]": {"test_system": "colonrectal cancer HT-29 cells", "experiment": "Cell proliferation assay (MTT), HT-29 cells", "assay_type": "cell-based, Human", "settings": "single agents and combinations", "experimental": "as §1, §2, §3"}, "[4]": {"test_system": "cervical cancer Hela cells", "experiment": "Cell proliferation assay (MTT), cervical cancer Hela cells", "assay_type": "cell-based, Human", "settings": "single agents and combinations, VPA 2.5 mM in FIGS. 19, 22"}, "[5]": {"test_system": "pancreatic carcinoid BON cells", "experiment": "Cell proliferation assay (MTT), BON cells", "assay_type": "cell-based, Human", "settings": "single agents and combinations, 2.5 mM VPA or 10 uM SBHA in FIGS. 20, 23"}, "[6]": {"test_system": "small cell lung cancer DMS-53 cells", "experiment": "Cell proliferation assay (MTT), DMS-53 cells", "assay_type": "cell-based", "settings": "single agents and combinations, 2.5 mM VPA or 10 uM SBHA in FIGS. 21, 24"}, "[7]": {"test_system": "Hela-GFP cells", "experiment": "Cell proliferation assay (MTT), Hela-GFP cells", "assay_type": "cell-based, Human", "experimental": "as §1\n(§4) The cell proliferation assay (Promega, Madison, Wis.) was performed as described previously in Sun et al., Bioorg Med Chem Lett, 2004, Vol. 14, pp. 2041-2046. Briefly, fifty μl of medium with or without tested compounds was added to 96-well plates. Another 50 μl of tested cancer cells (1×10^5 cells/ml) suspended in culture medium was dispensed into each well. The plates were incubated at 37° C. for 3 days. Afterward, plates were added with a 15 μl dye solution per well and incubated at 37° C. for 4 hours. To each well was then added 100 μl of the solubilization solution and the plates were incubated at 37° C. again until the contents in each well became a uniformly colored solution. The plates were measured at 570 nm by a Victor Reader (PerkinElmer)."}, "[8]": {"test_system": "Hela-ICN1 cells", "experiment": "Cell proliferation assay (MTT), Notch1-activated Hela-ICN1 cells", "assay_type": "cell-based, Human", "experimental": "as §1, §4"}, "[9]": {"test_system": "cAMP production in Hela-GFP cells", "experiment": "Fluorescence polarization (FP) cAMP assay, Hela-GFP cells", "assay_type": "cell-based, Human", "settings": "control Hela (Hela-GFP) cells", "experimental": "(§5) Fluorescence Polarization (FP) cAMP Assay The FP cAMP assay (FPA202) was performed according to the manufacturer's protocol (PerkinElmer, Boston, Mass. 02118-2512). Briefly, ten μl of forskolin at different concentrations were added to each well, then to each well ten μl of cell suspended in Stimulation Mix (made fresh before use by mixing anti-cAMP antibody in stimulation buffer) was added. Plates were incubated 30 minutes at 37° C. Twenty μl of Detection Mix (Fluo-cAMP stock diluted in Detection Buffer) was added and continued incubation 30 minutes at 37° C. Meanwhile, the standard curve, and controls were done. The cAMP was measured by Victor Reader (PerkinElmer)."}, "[10]": {"test_system": "cAMP production in Hela-ICN1 cells", "experiment": "Fluorescence polarization (FP) cAMP assay, Hela-ICN1 cells", "assay_type": "cell-based, Human", "settings": "for cAMP production: Hela cells with activated Notch1 signaling (Hela-ICN1)", "experimental": "as §5"}},
  "note": "Where a SMILES comes first, the peptide text is derived from it. [ ]: non-standard residue; d: D form. The star is where a group is joined. Nle = CCCC[C@H](N)C(=O)O; Cbz = O=C(OCc1ccccc1)*",
  "data": [
    {"smiles": "CCCC[C@@H](C=O)NC(=O)[C@H](CC(C)C)NC(=O)[C@H](CC(C)C)NC(=O)OCc1ccccc1", "note": "[NLE, Z-Leu-Leu-Nle-CHO] (Cbz-Leu-Leu-[Nle]-aldehyde)", "values": [
      {"measurement": "cell growth suppression (MTT), in words", "setting": "[1]", "result": "induced cell growth arrest"},
      {"measurement": "cell growth suppression (MTT), in words", "setting": "[2]", "result": "induced cell growth arrest"},
      {"measurement": "cell growth suppression (MTT), in words", "setting": "[3]", "result": "induced cell growth arrest"}
    ]},
    {"smiles": "O=C(CCCCCCC(=O)NO)NO", "note": "[SBHA, suberoyl bis-hydroxamic acid]", "values": [
      {"measurement": "cell growth suppression (MTT), in words", "setting": "[4]", "result": "suppressed"},
      {"measurement": "cell growth suppression (MTT), in words", "setting": "[5]", "result": "induced growth suppression"},
      {"measurement": "cell growth suppression (MTT), in words", "setting": "[6]", "result": "induced growth suppression"}
    ]},
    {"smiles": "C[C@H](N)C(=O)NCC(=O)N[C@H]1CSSC[C@@H](C(=O)O)NC(=O)[C@H](CO)NC(=O)[C@H]([C@@H](C)O)NC(=O)[C@H](Cc2ccccc2)NC(=O)[C@H]([C@@H](C)O)NC(=O)[C@H](CCCCN)NC(=O)[C@H](Cc2c[nH]c3ccccc23)NC(=O)[C@H](Cc2ccccc2)NC(=O)[C@H](Cc2ccccc2)NC(=O)[C@H](CC(N)=O)NC(=O)[C@H](CCCCN)NC1=O", "note": "[SST-14, Ala-Gly-Cys-Lys-Asn-Phe-Phe-Trp-Lys-Thr-Phe-Thr-Ser-Cys]", "values": [
      {"measurement": "inhibitory rate of cell proliferation (MTT)", "setting": "[7]; compound at 1 μM", "result": "almost no effect"},
      {"measurement": "inhibitory rate of cell proliferation (MTT)", "setting": "[7]; compound at 10 μM", "result": 28, "unit": "%"},
      {"measurement": "inhibitory rate of cell proliferation (MTT)", "setting": "[7]; compound at 20 μM", "result": "about 40%"},
      {"measurement": "inhibition of cell growth (MTT)", "setting": "[8]; compound at 1 μM", "result": 2, "unit": "%"},
      {"measurement": "inhibition of cell growth (MTT)", "setting": "[8]; compound at 10 μM", "result": 8, "unit": "%"}
    ]},
    {"smiles": "C=C[C@@]1(C)CC(=O)[C@]2(O)[C@@]3(C)[C@@H](O)CCC(C)(C)[C@@H]3[C@H](O)[C@H](OC(C)=O)[C@@]2(C)O1", "note": "[forskolin]", "values": [
      {"measurement": "cAMP production", "setting": "[9]; forskolin at 1 μM", "result": 0.005, "unit": "pMol cAMP per 10^3 cells"},
      {"measurement": "cAMP production", "setting": "[9]; forskolin at 10 μM", "result": 0.018, "unit": "pMol cAMP per 10^3 cells"},
      {"measurement": "cAMP production", "setting": "[9]; forskolin at 50 μM", "result": 0.024, "unit": "pMol cAMP per 10^3 cells"},
      {"measurement": "cAMP production", "setting": "[10]; forskolin at 1 μM", "result": 0.05, "unit": "pMol cAMP per 10^3 cells"},
      {"measurement": "cAMP production", "setting": "[10]; forskolin at 10 μM", "result": 0.25, "unit": "pMol cAMP per 10^3 cells"},
      {"measurement": "cAMP production", "setting": "[10]; forskolin at 50 μM", "result": 0.46, "unit": "pMol cAMP per 10^3 cells"},
      {"measurement": "cAMP concentration in Hela-ICN1 cells relative to Hela-GFP cells", "setting": "[10]; forskolin at 1 μM", "result": 10, "unit": "fold"},
      {"measurement": "cAMP concentration in Hela-ICN1 cells relative to Hela-GFP cells", "setting": "[10]; forskolin at 10 μM", "result": 14, "unit": "fold"},
      {"measurement": "cAMP concentration in Hela-ICN1 cells relative to Hela-GFP cells", "setting": "[10]; forskolin at 50 μM", "result": 19, "unit": "fold"}
    ]}
  ]
}
